Ten compounds from patent US8796246B2, “9, 10-secopregnane derivative and pharmaceutical” (Nippon Shinyaku Co., Ltd., priority 2006, dated 2014) can be followed below.

pEC50: −log10 of the molar value.

Series [1] relates to human acute myelogenous leukemia cell line HL-60. Nature of the series: Ability to induce differentiation of HL-60 cells (oxygen radical production after phorbol ester, WST-1). Type of series: cell-based. As to conditions: 72 hours incubation, then WST-1 and phorbol 12,13-didecanoate for 4 hours, absorbance at 450 nm. The text has this:
It is known that the human acute myelogenous leukemia cell line HL-60is differentiated into neutrophil-like cells by active vitamin D or the like. Thus, the cells after the differentiation begin to express a surface marker such as CD11and CD32and, at the same time, they produce an oxygen radical by stimulation with a phorbol ester or the like. In this test, the above-mentioned property was utilized. As an index of the ability to induce differentiation of the HL-60cells, the amount of the oxygen radical produced by stimulation with a phorbol ester was measured, and the compounds of the invention mentioned in Examples were compared with maxacalcitol with respect to the vitamin D3activity thereof. In use of commercial reagents and kits, if any, the indications attached thereto were referred to.
HL-60cells (supplied from ATCC) were seeded on a 96-well plate at 5×10^3cells/100μL/well and a test compound in two-fold dilution series from 10^−7M was added to the second to the twelfth rows (maximum concentration: the second row). The first row was used for blank. After incubation for 72 hours under a moisturized condition in the presence of 5% CO2 at 37° C. using a CO2 incubator, 10 μL of PBS containing 50 mM WST-1 (manufactured by Takara Bio) and 10 μM phorbol 12,13-didecanoate (manufactured by SIGMA) were added to each well followed by further incubation for 4 hours. Absorbance (reference wavelength: […]) at […] of the WST-1 formazane dye generated by conversion from WST-1 by oxygen radical produced from the differentiated HL-60 cells was measured by a Benchmark microplate reader (manufactured by BioRad). An absorbance meter control software MPM3 (manufactured by BioRad) was used and, from a concentration-absorbance curve, the 50%-maximal effective concentration (hereinafter, referred to as “EC50”) of each was determined by a logistic curve regression.
(Tetrazolium dyes change colour on reduction, which living cells bring about.)

Series [2] can be described thus: Metabolic rate in human liver microsome. As to conditions: pooled human liver microsome 1 mg/mL protein, NADPH-regenerating system, 37° C., 2-60 minutes, HPLC. Type of series: in vitro ADME. The procedure: The compounds of the invention mentioned in Examples and maxacalcitol were compared with each other with respect to the metabolic rate in human liver microsome.
As to the pooled human liver microsome (HHM-0323), those manufactured by Tissue Transformation Technologies were used. A 0.25 M potassium phosphate buffer (pH 7.4) (200 μL), 5 μL of a 250 μM solution of each compound to be tested in DMSO, 50 μL of an NADPH-regenerating system (where 20 mg of β-NADP^+, 70 mg of glucose-6-phosphate, 40 units of glucose-6-phosphate dehydrogenase and 20 mg of magnesium chloride were dissolved in 1 mL of distilled water) and 220 μL of distilled water were added to a microtube and the mixture was subjected to a preincubation for 5 minutes at 37° C. Reaction was started by an addition of 25 μL of human liver microsome (final concentration of protein: 1 mg/mL). Incubation was performed for 2, 10, 30 or 60 minutes and the reaction was stopped by an addition of 500 μL of acetonitrile. After centrifugation at 13,000 rpm for 5 minutes, each test compound in the supernatant (25 μL) was measured by HPLC under the following conditions.
Inertsil ODS-3 (4.6×150 mm; GL Science) was used as a column. With regard to the mobile phase, a solution A (acetonitrile/0.1% aqueous solution of ammonium acetate=10/90) and a solution B (acetonitrile/0.1% aqueous solution of ammonium acetate=90/10) were used under the linear gradient conditions mentioned in Tables 5 to 7. The column temperature, the flow rate and the wavelength for detection were set at 40° C., 1.0 mL/min. and UV 250 or 270 nm, respectively.
The compound mentioned in Example 38 was analyzed under the condition shown in Table 6; the compounds mentioned in Examples 55, 56, 68, 69, 72 and 73 were under the condition shown in Table 7; and the other compounds were under the condition shown in Table 5.
The compounds described in Examples 40, 43 to 48, 50, 55, 56, 58, 60, 61, 63 and 65 to 73 were analyzed under the condition of UV 250 nm; and the other compounds were under the condition of UV 270 nm.
From the HPLC test results as above, the metabolic rate of the test compound was calculated.
For orientation: Liver microsomes are vesicles of endoplasmic reticulum, rich in cytochrome P450 enzymes.

As usually defined, the pEC50 is −log10 of the EC50, conventionally taken in molar units. High values mean a small EC50, low ones a large EC50. `C=C1C(O)CC(=CC=C2CCCC3(C)C2CCC3C(C)OC(=O)CCC(C)(C)O)CC1O` [Compound of Example 41, (1R,3R,20S)-2-methylene-19-nor-20-(4-hydroxy-4-methylpentanoyloxy)-9,10-secopregna-5Z,7E-diene-1,3-diol] showed a pEC50 in series [1] of 9.59. Further, the “Metabolic Rate” value in series [2] is 46 pmol/min/mg.

As for `C=C1C(O)CC(=CC=C2CCCC3(C)C2CCC3C(C)OC(=O)CCC(C)(O)C(F)(F)F)CC1O` [Compound of Example 44, (1R,3R,20S)-2-methylene-19-nor-20-(5,5,5-trifluoro-4-hydroxy-4-methylpentanoyloxy)-9,10-secopregna-5Z,7E-diene-1,3-diol], in series [1], the pEC50 was 9.60. In series [2], the “Metabolic Rate” value was determined as 95 pmol/min/mg.

Consider `C=C1C(O)CC(=CC=C2CCCC3(C)C2CCC3C(C)OC(=O)C=CC(O)(CC)CC)CC1O` [Compound of Example 45, (1R,3R,20S)-2-methylene-19-nor-20-[(2E)-4-ethyl-4-hydroxyhex-2-enoyloxy]-9,10-secopregna-5Z,7E-diene-1,3-diol], for which the pEC50 in series [1] is 9.51. In series [2], the “Metabolic Rate” value was determined as 40 pmol/min/mg.

With `CC(OC(=O)CCC(C)(C)O)C1=CCC2C(=CC=C3CC(O)CC(O)C3)CCCC12C` [Compound of Example 46, (1R,3R,20S)-19-nor-20-(4-hydroxy-4-methylpentanoyloxy)-9,10-secopregna-5Z,7E,16-triene-1,3-diol], in series [1], the pEC50 was 8.85. For the same compound, the “Metabolic Rate” value in series [2] is listed as 45 pmol/min/mg.

Consider `CC(OC(=O)CCC(C)(C)O)C1CCC2C(=CC=C3CC(O)C(C)C(O)C3)CCCC21C` [Compound of Example 50, (1R,2α,3R,20S)-2-methyl-19-nor-20-(4-hydroxy-4-methylpentanoyloxy)-9,10-secopregna-5Z,7E-diene-1,3-diol], for which the pEC50 in series [1] is 10.37. In series [2], the “Metabolic Rate” value turned out to be 45 pmol/min/mg.

With `C=C1C(O)CC(=CC=C2CCCC3(C)C(C(C)OC(=O)CCC(C)(O)C(F)(F)F)=CCC23)CC1O` [Compound of Example 56, (1R,3R,20S)-19-nor-2-methylene-20-[(4R)-5,5,5-trifluoro-4-hydroxy-4-methylpentanoyloxy]-9,10-secopregna-5Z,7E,16-triene-1,3-diol], the pEC50 in series [1] was 9.33. Further, in series [2], the “Metabolic Rate” value is 102 pmol/min/mg.

In the case of `CC1[C@H](O)CC(=C/C=C2\CCC[C@]3(C)[C@@H]([C@H](C)OC(=O)CCCC(C)(C)O)CC[C@@H]23)C[C@H]1O` (stereo partly drawn) [Compound of Example 58, (1R,2α,3R,20S)-2-methyl-19-nor-20-(5-hydroxy-5-methylhexanoyloxy)-9,10-secopregna-5Z,7E-diene-1,3-diol], the pEC50 in series [1] was 9.28. Also, the “Metabolic Rate” value in series [2] came out at 29 pmol/min/mg.

On to `CC(OC(=O)CCC(C)(O)C(F)(F)F)C1CCC2C(=CC=C3CC(O)C(C)C(O)C3)CCCC21C` [Compound of Example 60, (1R,2α,3R,20S)-2-methyl-19-nor-20-(5,5,5-trifluoro-4-hydroxy-4-methylpentanoyloxy)-9,10-secopregna-5Z,7E-diene-1,3-diol], for which the negative-log EC50 (pEC50) in series [1] was 10.28. Further, the “Metabolic Rate” value in series [2] came to 78 pmol/min/mg.

In series [1], `CC(OC(=O)CCC(C)(C)O)C1=CCC2C(=CC=C3CC(O)C(C)C(O)C3)CCCC12C` [Compound of Example 62, (1R,2α,3R,20S)-19-nor-2-methyl-20-(4-hydroxy-4-methylpentanoyloxy)-9,10-secopregna-5Z,7E,16-triene-1,3-diol] had a pEC50 of 9.64. Moreover, in series [2], the “Metabolic Rate” value is 24 pmol/min/mg.

In turn, `CCC(O)(C=CC(=O)OC(C)C1CCC2C(=CC=C3CC(O)C(C)C(O)C3)CCCC21C)CC` [Compound of Example 65, (1R,2α,3R,20S)-2-methyl-19-nor-20-[(2E)-4-ethyl-4-hydroxyhex-2-enoyloxy]-9,10-secopregna-5Z,7E-diene-1,3-diol] showed a negative logarithm of the EC50 (pEC50) in series [1] of 9.54. The “Metabolic Rate” value in series [2] is listed as 29 pmol/min/mg.
